According to paper PMC7587356, “High-Throughput Screening for Inhibitors of the SARS-CoV-2 Protease Using a FRET-Biosensor” (Molecules, 2020):
Structures can show the parent of a compound that is named as a salt. Where two headings read alike, the source gives them in different places.

Target: SARS-CoV-2 3CLpro (Severe acute respiratory syndrome coronavirus 2, UniProt P0DTD1)
Experiment: biochemical
Format: biochemical
Parameters: Replicate_1 / Replicate_2 / mean / mean (LOPAC_screen_w_protease): unit not given here
Settings: for inhibition at 5 µM: 4 h
[1] = sheet LOPAC_screen_w_protease, LOPAC1280 at 5 µM, mean of two replicates
[2] = sheet LOPAC_screen_w_protease, LOPAC1280 at 5 µM, replicate 1
[3] = sheet LOPAC_screen_w_protease, LOPAC1280 at 5 µM, replicate 2
[4] = sheet LOPAC_screen_w_protease, primary screen with protease, compound at 5 µM, mean of two replicates, read-out: mean
[5] = sheet LOPAC_screen_w_protease, primary screen with protease, compound at 5 µM, replicate 1, read-out: Replicate_1
[6] = sheet LOPAC_screen_w_protease, primary screen with protease, compound at 5 µM, replicate 2, read-out: Replicate_2
[7] = LOPAC1280 primary screen with protease, 5 µM compound, replicate 1, read-out: Replicate_1 (LOPAC_screen_w_protease)
[8] = LOPAC1280 primary screen with protease, 5 µM compound, replicate 2, read-out: Replicate_2 (LOPAC_screen_w_protease)
[9] = LOPAC1280 primary screen with protease, 5 µM compound, mean of the two replicates
[10] = sheet LOPAC_screen_w_protease, primary screen with protease, mean of two replicates
[11] = sheet LOPAC_screen_w_protease, primary screen with protease, replicate 1
[12] = sheet LOPAC_screen_w_protease, primary screen with protease, replicate 2

Compound: Cl.Cl.c1ccc(CCCN2CCN(CCOC(c3ccccc3)c3ccccc3)CC2)cc1 [GBR-12935 dihydrochloride]
- mean [1]: 0.9925
- Replicate_1 [2]: 2.277
- Replicate_2 [3]: -0.2925

Compound: Cl.NC1CCN(c2cccc(Cl)n2)CC1 [SR 57227A]
- mean [1]: 1.074
- Replicate_1 [2]: 1.181
- Replicate_2 [3]: 0.9673

Compound: CC(C)(C)c1cc(C=C(C#N)C#N)cc(C(C)(C)C)c1O [Tyrphostin A9]
- mean (LOPAC_screen_w_protease): 2.02
- inhibition at 5 µM (read-out: Replicate_1 (LOPAC_screen_w_protease)): 2.73%
- inhibition at 5 µM (read-out: Replicate_2 (LOPAC_screen_w_protease)): 1.31%

Compound: Cc1ccc(Cl)c(Nc2ccccc2C(=O)O)c1Cl [Meclofenamic acid sodium]
- inhibition at 5 µM (read-out: Replicate_1): 1.45%
- inhibition at 5 µM (read-out: Replicate_2): 5.52%
- inhibition at 5 µM (read-out: mean): 3.48%

Compound: Oc1cc2c(cc1O)[C@H]1c3ccccc3CN[C@@H]1CC2 (racemic) [Dihydrexidine hydrochloride]
- inhibition at 5 µM (read-out: Replicate_1 (LOPAC screen with protease)): 96.2%
- inhibition at 5 µM (read-out: Replicate_2 (LOPAC screen with protease)): 98.8%
- inhibition at 5 µM (read-out: mean (LOPAC screen with protease)): 97.5%

Compound: CCCC1O[C@@H]2C[C@H]3[C@@H]4CCC5=CC(=O)C=C[C@]5(C)[C@H]4[C@@H](O)C[C@]3(C)[C@]2(C(=O)CO)O1 (some centres unmarked) [Budesonide]
- inhibition at 5 µM [4]: 3.01%
- inhibition at 5 µM [5]: 1.81%
- inhibition at 5 µM [6]: 4.21%

Compound: N[C@H](C(=O)O)c1cc(O)no1 (racemic) [(±)-Ibotenic acid]
- mean (sheet LOPAC_screen_w_protease, LOPAC1280 primary screen at 5 µM, with protease, mean of the two replicates): 0.7432
- Replicate_1 (sheet LOPAC_screen_w_protease, LOPAC1280 primary screen at 5 µM, with protease, replicate 1): 1.025
- Replicate_2 (sheet LOPAC_screen_w_protease, LOPAC1280 primary screen at 5 µM, with protease, replicate 2): 0.4611

Compound: N.N.O=C([O-])C1(C(=O)[O-])CCC1.[Pt+2] [Carboplatin]
- mean (sheet LOPAC_screen_w_protease, primary screen with protease, compound at 5 µM, mean of two replicates): 2.889
- Replicate_1 (sheet LOPAC_screen_w_protease, primary screen with protease, compound at 5 µM, replicate 1): 1.772
- Replicate_2 (sheet LOPAC_screen_w_protease, primary screen with protease, compound at 5 µM, replicate 2): 4.006

Compound: Nc1nc(N)c2nc(CNc3ccc(C(=O)N[C@@H](CCC(=O)O)C(=O)O)cc3)cnc2n1 [Aminopterin]
- inhibition at 5 µM [7]: 2.12%
- inhibition at 5 µM [8]: 1.52%
- mean (LOPAC_screen_w_protease) [9]: 1.819

Compound: CC(=O)N[C@@H](Cc1c[nH]c2ccccc12)C(=O)OCc1cc(C(F)(F)F)cc(C(F)(F)F)c1 [L-732,138]
- mean [10]: 2.284
- Replicate_1 [11]: 2.97
- Replicate_2 [12]: 1.597

Compound: CC1=C(C(=O)O)N2C(=O)[C@@H](NC(=O)[C@H](N)C3=CCC=CC3)[C@H]2SC1 [Cephradine]
- inhibition at 5 µM [4]: 3.13%
- inhibition at 5 µM [5]: 2.84%
- inhibition at 5 µM [6]: 3.42%

Compound: CCOC(=O)C1=C(C)NC(=S)NC1c1cccc(O)c1 (centres unmarked) [Monastrol]
- inhibition at 5 µM (sheet LOPAC_screen_w_protease, LOPAC1280 primary screen with protease, 5 µM compound, mean of the two replicates, read-out: mean): 6.04%
- inhibition at 5 µM (sheet LOPAC_screen_w_protease, LOPAC1280 primary screen with protease, 5 µM compound, replicate 1, read-out: Replicate_1): 5.54%
- inhibition at 5 µM (sheet LOPAC_screen_w_protease, LOPAC1280 primary screen with protease, 5 µM compound, replicate 2, read-out: Replicate_2): 6.55%

Compound: CC(C)CN(C)c1nc(N)c(C(=O)N=C(N)N)nc1Cl [5-(N-Methyl-N-isobutyl)amiloride]
- inhibition at 5 µM (sheet LOPAC_screen_w_protease, LOPAC1280 primary screen at 5 µM, with protease, mean of the two replicates, read-out: mean): 0.449%
- inhibition at 5 µM (sheet LOPAC_screen_w_protease, LOPAC1280 primary screen at 5 µM, with protease, replicate 1, read-out: Replicate_1): 0.238%
- inhibition at 5 µM (sheet LOPAC_screen_w_protease, LOPAC1280 primary screen at 5 µM, with protease, replicate 2, read-out: Replicate_2): 0.66%

Compound: O=c1n(CCCN2CCN(c3cccc(Cl)c3)CC2)nc2ccccn12 [Trazodone hydrochloride]
- inhibition at 5 µM [4]: 2.86%
- inhibition at 5 µM [5]: 3.03%
- inhibition at 5 µM [6]: 2.69%

Compound: O=C(O)c1ccccc1Nc1cccc(OCc2ccc3ccccc3n2)c1 [SR 2640]
- inhibition at 5 µM [7]: 1.95%
- inhibition at 5 µM [8]: 1.04%
- mean (LOPAC_screen_w_protease) (LOPAC1280 primary screen with protease, 5 µM compound, mean of two replicates): 1.4964

Compound: O=C(O)CN(CCN(CC(=O)O)CC(=O)O)CCN(CC(=O)O)CC(=O)O [Diethylenetriaminepentaacetic acid]
- mean (sheet LOPAC_screen_w_protease, primary screen of LOPAC1280 at 5 µM with protease, mean of the two replicates): 3.2
- Replicate_1 (sheet LOPAC_screen_w_protease, primary screen of LOPAC1280 at 5 µM with protease, replicate 1): 5.3521
- Replicate_2 (sheet LOPAC_screen_w_protease, primary screen of LOPAC1280 at 5 µM with protease, replicate 2): 1.048

Compound: C[C@@H]1O[C@@H](O[C@H]2C[C@@H](O)[C@]3(CO)[C@H]4[C@H](O)C[C@]5(C)[C@@H](C6=CC(=O)OC6)CC[C@]5(O)[C@@H]4CC[C@]3(O)C2)[C@H](O)[C@H](O)[C@H]1O [Ouabain]
- inhibition at 5 µM (read-out: Replicate_1): 3.98%
- inhibition at 5 µM (read-out: Replicate_2): 1.68%
- inhibition at 5 µM (read-out: mean): 2.83%

Compound: trans-(±)-ACPD
- Replicate_1 (LOPAC_screen_w_protease) (LOPAC1280 primary screen with protease, 5 µM compound, replicate 1): 2.281
- Replicate_2 (LOPAC_screen_w_protease) (LOPAC1280 primary screen with protease, 5 µM compound, replicate 2): 1.598

Compound: CCCCCCCCCCC/C=C\C(C)(C)/C=C\CCCC(=O)O [7,7-Dimethyl-(5Z,8Z)-eicosadienoic acid]
- mean [10]: 2.303
- Replicate_1 [11]: 4.092
- Replicate_2 [12]: 0.5145

Compound: CN(C)CCOC(c1ccccc1)c1ccccc1 [Diphenhydramine hydrochloride]
- inhibition at 5 µM [7]: 2.14%
- inhibition at 5 µM [8]: 1.54%
- mean (LOPAC_screen_w_protease) [9]: 1.841
